Data on three molecules can be found in patent US20180008563A1 (priority 2015, published 2018).

Where two headings read alike, the source gives them in different places.

The subject of assay [1] is porcine epidemic diarrhea. Briefly: Treatment of porcine epidemic diarrhea of newborn suckling piglets (piglets and lactating sows treated). Format: in vivo, pigs. The following applies: diseased newborn suckling piglets; taurine 100 g per sow per day, 0.2 g per piglet per day. The method, then: Treatment of the porcine epidemic diarrhea on newborn piglets with taurine was implemented by orally administering a taurine solution to diseased suckling piglets and administering taurine to lactating sows, that is, simultaneous treatment of both the suckling piglets and the lactating sows.
the administration by drenching/mixed-feeding was carried out on the day when the disease occurred in the suckling piglets, and a non-interrupted administration lasted for 3-10 days. Lactating sows: non-interrupted oral administration lasted for 5-10 days.
the administration by drenching or mixed-feeding was carried out on the day when the disease occurred in the suckling piglets. The administration by drenching: 2% taurine solution at a dosage of 1-5 mL per time and it was taken 2-6 times per day. The administration by mixed-feeding: 1-20 g/L of taurine solution was drunk freely. Lactating sows: each sow was administered with 5-500 g of taurine per day and the administration was in a single dose or in divided doses.
40 litters of diseased newborn suckling piglets and sows thereof were selected and randomly divided into two groups equivalently. Control group: conventional supportive therapy (fluid infusion+antibiotic therapy+atropine sulfate); experimental group: treatment with taurine.
II. […]

The test system of assay [2] is porcine epidemic diarrhea. Description: Prevention of porcine epidemic diarrhea of weaned piglets, care pigs and finishing pigs. Format: in vivo. The following applies: taurine 200 mg per kilogram of body weight per day. The procedure: Prevention of the porcine epidemic diarrhea on the weaned piglets, the care pigs and the finishing pigs with taurine was implemented by orally administering taurine to a swine herd, wherein the administration may be carried out by means of feeding in water or mixed feeding.
a preventative administration was carried out during an epidemic period of the disease, or in autumn, winter and spring when the temperature was low and changed greatly, that is, in the season when the porcine epidemic diarrhea frequently occurs. Generally, the administration can be carried out for a long-term. In consideration of the use-cost, the drug administration time is preferably 3-30 days, and more preferably, 7-14 days. The effect is subject to an obvious time-effect relationship.
0.005-2% by weight of taurine was added in daily-drinking water for the pigs to drink freely; or taurine accounting for 0.01-5% by weight of the feed was added thereto, which is equivalent to a dosage of 50-10000 mg per kilogram of body weight per day of taurine, and the administration was in a single dose or in divided doses. The effect is subject to an obvious quantity-effect relationship.
120 healthy weaned piglets, 120 healthy care pigs and 120 healthy finishing pigs were selected and randomly divided into two groups equivalently. Control group: conventional feeding; experimental group: conventional feeding+taurine (the dosage of taurine was 200 mg per kilogram of body weight per day).
I. The pharmaceutical composition according to Embodiment 6 was used for the prevention of porcine epidemic diarrhea of the newborn piglets, weaned piglets, care pigs and finishing pigs. Particularly, a mode of the administration for the newborn piglets was the same as the method in Embodiment 1, i.e. each pregnant sow was administered with 50 g of the pharmaceutical composition in Embodiment 6 per day, and the administration was in a single dose or in divided doses. […]

The test system of assay [3] is porcine epidemic diarrhea. Description: Treatment of porcine epidemic diarrhea of weaned piglets, care pigs and finishing pigs. The format is in vivo. The following applies: taurine 300 mg per kilogram of body weight per day. The procedure:
Treatment of the porcine epidemic diarrhea on the weaned piglets, the care pigs and the finishing pigs with taurine was implemented by orally administering taurine to the pigs, wherein the administration may be carried out by means of feeding in water or mixed feeding.
the administration was carried out from the day of occurrence of the disease, and in consideration of the use-cost, the drug administration time is preferably 3-30 days, and more preferably 7-14 days. The effect is subject to an obvious time-effect relationship.
0.1-2% by weight of taurine was added in the daily-drinking water for the pigs to drink freely; or taurine accounting for 0.2-5% of the feed was added thereto, which is equivalent to a dosage of 100-10000 mg per kilogram of body weight per day of taurine, and the administration was in a single dose or in divided doses. The effect is subject to an obvious quantity-effect relationship.
60 diseased weaned piglets, 60 diseased care pigs and 60 diseased finishing pigs were selected, and were randomly divided into two groups equivalently. Control group: conventional supportive therapy (fluid infusion+antibiotic therapy+atropine sulfate); experimental group: treatment with taurine (the dosage of taurine was 300 mg per kilogram of body weight per day).
II. The pharmaceutical composition according to Embodiment 6 was used for the treatment of porcine epidemic diarrhea of the newborn piglets, weaned piglets, care pigs and finishing pigs. A mode of the administration for the newborn piglets was the same as the method in Embodiment 2, i.e. the administration by drenching and/or mixed-feeding was carried out on the day when the disease occurred in the suckling piglets. The administration by drenching: a solution with a mass concentration of 5% was prepared from the pharmaceutical composition in Embodiment 6 with a dosage of 2-4 mL per time and it was taken 2-6 times per day. The administration by mixed-feeding: 4 g/L of the solution was drunk freely. […]

Assay [4] deals with porcine transmissible gastroenteritis. Format: in vivo, pigs.
For another assay, the system named is rotavirus diarrhea. Briefly: Treatment of rotavirus diarrhea. Format: in vivo, pigs.
Assay [5] relates to pseudorabies viral diarrhea. The format is in vivo, pigs.
In a further assay the test system is epidemic diarrhea. The following applies: diseased piglets, oral, a certain dose; cited from earlier work.
The subject of another assay is PEDV. The following applies: Kim et al., Virus Research (2013); cited from earlier work.
Setting [6] is: care pigs, taurine dosage as in Embodiment 4 (300 mg per kilogram of body weight per day).
Where [7] appears, read: newborn piglets, taurine dosage as in Embodiment 2 (100 g per sow per day, 0.2 g per piglet per day).
The mark [8] stands for this setting: weaned piglets, taurine dosage as in Embodiment 4 (300 mg per kilogram of body weight per day).

For `NCCS(=O)(=O)O` [taurine, β-aminoethanesulfonic acid], the Prognosis entry in assay [1] was “Good”; in assay [2] (care pigs), “Excellent”; in assay [2] (finishing pigs) it was “Excellent”; in assay [2] (weaned piglets), “Excellent”; in assay [3] (diseased care pigs) it was “Good”; in assay [3] (diseased finishing pigs) it was “Good”. Further, the Prognosis entry in assay [3] (diseased weaned piglets) was “Good”; in assay [4] (setting [6]), “Good”; in assay [4] (finishing pigs, taurine dosage as in Embodiment 4 (300 mg per kilogram of body weight per day)), “Good”; in assay [4] (setting [7]) it was “Good”; in assay [4] (setting [8]) it was “Good”; with rotavirus diarrhea (setting [6]), “Good”. Also, the values for the Prognosis entry (with rotavirus diarrhea (setting [7]); in the assay with rotavirus diarrhea (setting [8]); in assay [5] (setting [6])) were “Good”, “Good” and “General”, respectively. Besides, the “treatment effect on the pseudorabies viral diarrhea” value in assay [5] (summary in text of Table 5) is “no treatment effect”.

In the case of povidone iodine, in the assay on epidemic diarrhea, the “improvement of survival rate” value is reported as 5-10% and the “prognosis of survived suckling piglets” value is listed as “unfavourable prognosis”.

As for `NC(=O)c1ncn([C@@H]2O[C@H](CO)[C@@H](O)[C@H]2O)n1` [Ribavirin], the “inhibition of replication of PEDV” value in the assay on PEDV is listed as “capable of inhibiting replication of PEDV”.
